The subject of test [1] is human perivascular stem cells. Put plainly: Boyden chamber chemotaxis of human perivascular stem cells. The class given is cell-based. The following applies: Neuro Probe 48-well chamber, 3 hours, varying concentrations. The protocol:
To confirm the chemotactic activity for progenitor cells within ECM degradation products, human perivascular stem cells were assessed in vitro in a Boyden chamber. The peptides IAGVGGEKSGGF (Peptide 1, SEQ ID NO: 1) and GPVGPSGPPGK (Peptide 2, SEQ ID NO: 2) were tested.
Perivascular stem cells were isolated from human muscle and propagated in culture as previously described (Crisan M, Yap S, Casteilla L, et al. A perivascular origin for mesenchymal stem cells in multiple human organs. Cell Stem Cell. 2008; 3:301-313).
Perivascular stem cells were cultured in Dulbecco's Modified Eagle's Medium (DMEM) supplemented with 20% fetal calf serum (FCS), 2 mM glutamine, 100 U/ml penicillin, and 100 μg/ml streptomycin in […] at 37° C.
Cultures at passages 10-12 and 50-70% confluence were starved in serum-free DMEM supplemented with 0.5% heat inactivated (FCS) for 14-17 hours. After starvation, cells were harvested in 0.25% trypsin and 0.53 mM EDTA, centrifuged, and resuspended in DMEM with 0.5% heat inactivated FCS at a concentration of 6×10^5 cells/ml for 1 hour. […] After 3 hours, cells facing the upper chamber on the filter were scraped off, and cells facing the bottom filter were fixed in methanol, stained with 500 nM DAPI (Sigma, D9564), and counted using ImageJ (NIH).

The test system of test [2] is human perivascular stem cells. The test can be described thus: Human perivascular stem cells osteogenic differentiation. The class given is cell-based. The protocol: (§1) Source of Cells and Culture Conditions: Human perivascular stem cells were obtained as described above and were cultured in high-glucose Dulbecco's modified Eagle's medium (DMEM, Invitrogen) containing 20% fetal bovine serum (FBS; Thermo), 100 U/mL penicillin, and 100 μg/mL streptomycin (Sigma) at 37° C. in 5% CO2. Human cortical neuroepithelium stem (CTX) cells were cultured in DMEM:F12 supplemented with 0.03% Human albumin solution, 100 μg/ml human Apo-Transferrin, 16.2 μg/ml Putrescine DiHCl, 5 μg/ml Insulin, 60 ng/ml Progesterone, 2 mM L-Glutamine, 40 ng/ml Sodium Selinite, 10 ng/ml human bFGF, 20 ng/ml human Epidermal growth factor, and 100 nM 4-Hydroxytestosterone.
Human Perivascular Stem Cells Osteogenic Differentiation: Confluent perivascular stem cells were cultured in osteogenic differentiation medium (DMEM with 20% FBS, 20 μM ascorbic acid and 1.76 mM β-glycophosphate) and analyzed for the presence of calcium deposits after 4, 7, and 14 days. Calcium deposits were detected via fixation in 10% NBF and staining with 2% Alizarin Red.

In test [3] the test system is C57/BL6 mice, amputated third digit. The test can be described thus: Animal model of digit amputation (in vivo bone formation). Further details: species or system mouse. The protocol:
Animal Model of Digit Amputation: Adult female 6- to 8-week-old C57/BL6 mice (n=4) were subjected to aseptic midsecond phalanx amputation of the third digit on both hind feet. At 0, 24, and 96 h after surgery 15 μL of 10 mM peptide 1 was injected into the footpad below the amputated digit using a 30-gauge needle. A second group of animals (n=4) were treated in the same way except that phosphate buffered saline (PBS) was injected instead of the peptide Animals were killed via cervical dislocation under isoflurane anesthesia at 14 days after surgery. Isolated toes were fixed in 10% neutral buffered formalin (NBF), embedded in paraffin and cut into 5 μm sections, before deparaffinization and staining with Alcian blue at pH 2.5, hematoxylin and eosin (H&E) or Masson's trichrome.

Test [4] deals with human cortical neuroepithelium stem (CTX) cells. Put plainly: CTX cells chemotaxis assay. The class given is cell-based. The note with it: 5 h. How it is done:
as §1
CTX Cells Chemotaxis Assay: CTX cells (human cortical neuroepithelium stem cells) were grown to ˜80% confluence, made into a single cell suspension, and the migration of 3×10^4 cells per well towards peptide 1 was assayed over 5 h. Migrated cells were stained by 4′,6-diamidino-2-phenylindole and quantified with ImageJ (NIH). All of the data are means of quadruplicate determinations with standard deviations. The assay was performed on three separate occasions.

On to “GPVGPSGPPGK (listed as Sus scrofa) [Peptide 2, 11-mer from porcine Collagen type III alpha 1, found in pepsin-digested UBM, chemically synthesized]”, for which the “Chemotactic activity for progenitor cells” value in test [1] is reported as “excellent chemotactic activity”.
“IAGVGGEKSGGF (listed as Sus scrofa) [Peptide 1, 12-mer from porcine Collagen type III alpha 1, found in pepsin-digested UBM, chemically synthesized]”: the “Chemotactic activity for progenitor cells” value in test [1] is given as “excellent chemotactic activity”. Further, in test [2] (100 μM peptide, not seen without peptide), the “Bone nodules in standard culture medium” value is reported as “caused the formation of bone nodules”. In addition, the “Bone nodules in osteogenic differentiation medium” value in test [2] (1, 10 or 100 μM peptide, vs differentiation medium alone) is “more bone nodules”. Moreover, in test [3] (15 μL of 10 mM peptide injected into footpad at 0, 24, 96 h, tissue at 14 days, H&E/trichrome, vs buffer), the “In vivo bone formation at the amputated digit” value was “formation of a bone like growth on the side of the amputated digit”. Also, the “Alcian blue staining of sulfated glycosaminoglycans (GAG)” value in test [3] (15 μL of 10 mM peptide into footpad, 14 days, buffer group showed diffuse GAG staining) was “concentrated GAG positive staining only at the bone nodule”. The “Migration of CTX cells compared to media without peptide” value in test [4] (all concentrations of peptide, 3×10^4 cells per well) is “increased migration”. Also, the “Peptide concentration at which CTX cell migration was highest” value in test [4] (range of concentrations) came to 1 µM.

The record behind these values is US8716438B2, “Matricryptic ECM peptides for tissue reconstruction” (University of Pittsburgh—Of the Commonwealth System of …, priority 2009, dated 2014).
